Measured values: patent US10239870B2, “Dopamine D3 receptor antagonists” (priority 2014, dated 2019)
Where a name gives a salt, the structure may show the parent alone.

How the values were obtained:
[1] = molecular target: T1, hD2 recombinant receptor (human dopamine receptor type 2, long variant, CHO-Gα16-hD2L membranes) (Homo sapiens (Human), UniProt P14416); test: biochemical
[2] = molecular target: T1, hD2 recombinant receptor (human dopamine receptor type 2, long variant, CHO-Gα16-hD2L membranes); settings: displacement of 0.08 nM [3H]-Spiperone
[3] = molecular target: hD2 recombinant receptor (human dopamine receptor type 2, long variant, CHO-Gα16-hD2L cells) (Homo sapiens (Human), UniProt P14416); test: cell-based; settings: D2 fpKi, functional pKi; antagonism of dopamine EC80 calcium response (FLIPR)

Compound	Ki [1] [nM]	D2 pKi [2]	Ki [3] [nM]
Cn1c(SCCCN2CC[C@]3(C[C@@H]3c3ccc(C(F)(F)F)cc3)C2)nnc1-c1ccc2[nH]cnc2n1 (single isomer, unassigned) [Example 272]	95.5		
Cn1c(SCCCN2CC[C@]3(C[C@@H]3c3ccc(C(F)(F)F)cc3)C2)nnc1-c1ccnc(C#N)c1 (single isomer, unassigned) [Example 178]	794		
Cn1c(SCCCN2CC[C@]3(CC3c3ccc(C(F)(F)F)cc3F)C2)nnc1-c1cnccn1 (stereo partly drawn) [Example 221, (1S,3S/1R,3R)-1-[2-fluoro-4-(trifluoromethyl)phenyl]-5-(3-{[4-methyl-5-(pyrazin-2-yl)-4H-1,2,4-triazol-3-yl]sulfanyl}propyl)-5-azaspiro[2.4]heptane]		6.37	87.1
Cn1c(SCCCN2CC[C@]3(C[C@@H]3c3ccc(C(F)(F)F)cc3F)C2)nnc1-c1ccc(C(N)=O)cn1 (single isomer, unassigned) [Example 190]	275		
Cn1c(SCCCN2CC[C@]3(C[C@@H]3c3ccc(C(F)(F)F)cc3)C2)nnc1-c1cccc(C(N)=O)n1 (single isomer, unassigned) [Example 193]	437		
Cn1c(SCCCN2CC[C@]3(C[C@@H]3c3ccc(C(F)(F)F)cc3)C2)nnc1-c1ccc(CC#N)cc1 (single isomer, unassigned) [Example 286]	468		
Cn1c(SCCCN2CC[C@]3(C[C@@H]3c3ccc(C(F)(F)F)cc3)C2)nnc1-c1ccc(-c2nnn[nH]2)cc1 (single isomer, unassigned) [Example 273]	3160		
Cn1c(SCCCN2CC[C@]3(C[C@@H]3c3ccc(C(F)(F)F)cc3)C2)nnc1-c1ccc(C(N)=O)cn1 (single isomer, unassigned) [Example 189, dihydrochloride]	437		
Cn1c(SCCCN2CC[C@]3(C[C@@H]3c3ccc(C(F)(F)F)cc3)C2)nnc1-c1ccc(-n2cnnc2)cc1 (single isomer, unassigned) [Example 276]	166		
Cc1ncoc1-c1nnc(CCCCN2CC[C@]3(C[C@@H]3c3ccc(C(F)(F)F)cc3)C2)n1C (single isomer, unassigned) [Example 302, hydrochloride]	1150		
Cc1nc(-c2ccc(-c3nnc(SCCCN4CC[C@]5(C[C@@H]5c5ccc(C(F)(F)F)cc5)C4)n3C)cc2)no1 (single isomer, unassigned) [Example 275]	479		
Cn1c(SCCCN2CC[C@]3(C[C@@H]3c3ccc(C(F)(F)F)cc3F)C2)nnc1-c1ccc(C(N)=O)nc1 (single isomer, unassigned) [Example 185]	1230		
Cn1c(SCCCN2CC[C@]3(C[C@@H]3c3ccc(C(F)(F)F)cc3)C2)nnc1-c1cncc(C(N)=O)c1 (single isomer, unassigned) [Example 192]	437		
Cn1c(SCCCN2CC[C@]3(CC3c3ccc(C(F)(F)F)nc3)C2)nnc1C1CCOCC1 (stereo partly drawn) [Example 84, (1R,3S/1S,3R)-5-(3-{[4-methyl-5-(oxan-4-yl)-4H-1,2,4-triazol-3-yl]sulfanyl}propyl)-1-[6-(trifluoromethyl)pyridin-3-yl]-5-azaspiro[2.4]heptane]			> 10000
Cn1c(OCCCN2CC[C@]3(C[C@H]3c3ccc(C(F)(F)F)cc3)C2)nnc1C1CCOCC1 [Example 303, (1S,3S/1R,3R)-5-(3-{[4-methyl-5-(oxan-4-yl)-4H-1,2,4-triazol-3-yl]oxy}-propyl)-1-[4-(trifluoromethyl)phenyl]-5-azaspiro[2.4]heptane]			> 10000
Cc1ncoc1-c1nnc(SCCCN2CCC[C@]3(C[C@H]3c3ccc(C(F)(F)F)cc3)C2)n1C (racemic) [Example 310, (1R,3S/1S,3R)-5-(3-{[4-methyl-5-(4-methyl-1,3-oxazol-5-yl)-4H-1,2,4-triazol-3-yl]sulfanyl}propyl)-1-[4-(trifluoromethyl)phenyl]-5-azaspiro[2.5]octane]			19.1
Cn1c(SCCCN2CC[C@]3(CC3c3ccc(C(F)(F)F)cc3)C2)nnc1N1CCOCC1 (single isomer, unassigned) [Example 115]			97.7
